Measurements reported in patent publication US7217833B2, “Carboxylic acid compounds for use as surfactants” (Glaxco Group Limited, priority 2002, dated 2007).

How the values were obtained:
Assay type in all cases: physicochemical
[1] = Particle size by image analysis (Galai CIS-100) of salmeterol xinafoate suspension in HFA 134a
Experimental: (§1) Salmeterol xinafoate formulations in HFA 134a, of strength 25 μg per actuation, and 10% w/w (relative to drug) of the relevant surfactant compound of formula (I) were prepared in crimped glass bottles using salmeterol xinafoate (8.7 mg), HFA 134a (18 g) and the relevant compound (0.87 mg). The control was prepared without the addition of a surfactant.
In this measurement, particle size is represented as the equivalent diameter of a circle of equal area to the object. The mean is the average of 4 determinations. The particle size measurement was obtained by transferring the suspensions to a pressurised cell, and video-imaging the sample under shear via a microscope objective.
The equivalent diameter is defined as the diameter of a circle of equal area to the object.
The mean equivalent diameter can be weighted by number, length or volume. e.g. For three particles with equivalent diameters of x, y and z: […]

[2] = Andersen Cascade Impaction of salmeterol xinafoate HFA 134a formulation; settings: Initial timepoint, beginning of use, mean of 3 cans/inhalers, 10% w/w surfactant
Experimental: as §1
The formulation, the preparation of which is described above, was profiled using an Andersen Cascade Impactor. Ten actuations at “beginning of use” (BoU) were collected in the impactor from an inhaler after 4 priming actuations were fired to waste. The drug delivered was then quantified by HPLC analysis. Testing was performed at the initial timepoint (following sample preparation). The results, in Table 2 are shown as the mean analysis of 3 cans/inhalers.
The profile obtained was used to determine total dose emitted dose (ex-valve and ex-actuator) and the fine particle mass (FPM, defined as the sum of stages 3–5). The percentage fine particle mass expresses the FPM as a percentage of the total dose emitted (ex-valve). The FPM is used as a measure of the proportion of the drug likely to reach the therapeutic target in the lungs.

[3] = Content uniformity by dose through use testing; settings: Initial timepoint, 10% w/w surfactant
Experimental: as §1
The content uniformity of the formulation, the preparation of which is described above, was assessed by dose through use testing. Testing was performed on 10 cans/inhalers at “beginning of use” (BoU) and “end of use” (EoU). After each inhaler had been primed (4 shots fired to waste), actuations 1 and 2 (BoU) were collected. The next 116 actuations of each inhaler were then fired to waste using an automated method and actuations 119 and 120 (EoU) collected.
Assessment of content uniformity was performed at the initial timepoint (following sample preparation). Mean results from the two BoU actuations (1+2 for 10 inhalers) and the two EoU actuations (119+120 for same 10 inhalers) together with the percentage relative standard deviation (% RSD) for the 10 cans are shown in Table 3. […] The presence of the surfactant therefore improves the content uniformity of the inhaler. Furthermore the formulations containing the compound of Example 1, advantageously, show a reduction in the relative standard deviation at the BoU and EoU.

In the case of `O=C(CCC(F)(F)C(F)(F)F)OCC(OC(=O)CCC(F)(F)C(F)(F)F)C(=O)O` (centres unmarked) [Example 1, 2,3-Bis[(4,4,5,5,5-pentafluoronentanoyl)oxy]propanoic acid], the “Mean Length weighted diameter” value ([1]; salmeterol xinafoate 25 μg per actuation in HFA 134a with 10% w/w (relative to drug) surfactant, mean of 4 determinations) is reported as 21.5 μm, the “suspension stabilising properties (flocculation of drug particles)” value ([1]; salmeterol xinafoate formulation in HFA 134a with 10% w/w surfactant) is reported as “has suspension stabilising properties” and the “Total Dose Emitted (Ex-Actuator)” value ([2]; 10 actuations) is reported as 21.1 µg. For the same compound, the “Total Dose Emitted (Ex-Valve)” value ([2]; 10 actuations) was 23.9 µg, the “% FPM (FPM as percentage of total dose emitted ex-valve)” value [2] was 50.3% and the “FPM (fine particle mass, sum of stages 3–5)” value [2] was 12.0 µg. For the same compound, the BoU dose ([3]; actuations 1+2, mean of 10 inhalers) was 21.2 µg and the EoU dose ([3]; actuations 119+120, mean of 10 inhalers) was 25.1 µg.
